Source: US4370339A, “Method for treating inflammatory conditions” (Abbott Laboratories, priority 1981, dated 1983)

Columns and labels:
rats = test: toxicity, fatality ratio in rats; format: in vivo; details: for Fatality Ratio: rats
Description: The lesser toxicity of the 1-alkaryl derivatives is illustrated by the data of Table 3, which gives the fatality ratio in rats when the compounds were administered in the indicated dosages.

[1] = tested on: reverse passive Arthus reaction; test: reverse passive Arthus reaction in the rat; format: in vivo, rat (male Sprague-Dawley); details: oral, 100 mg/kg of body weight; lesion measured 4 h after anti-B.S.A.; groups of 4 rats
Excerpt: The anti-inflammatory activity of the compounds used in the invention was established using the reverse passive Arthus reaction in the rat as described by G. W. Carter and R. A. Krause in Federation Proceedings, Vol. 35, page 774, 1976. Although the carrageenin rat paw edema test (Winter et al., Proc. Soc. Exp. Biol. Med., 111, 554, 1962) can also be used to establish anti-inflammatory activity, the Arthus reaction, unlike carrageenin induced edema, is a well-characterized immune reaction which bears close resemblance to the pathogenesis of rheumatoid arthritis.
The Arthus reaction represents one of the oldest and best studied models of immunological injury. It is produced by the injection of antigen locally into a hyperimmunized animal or by the injection of a small amount of antibody into the skin of an animal that has just previously been given a large amount of soluble antigen intravenously. In both cases, the antigen and antibody become deposited in the walls of small venules. Plasma complement is rapidly bound and activated. […]
Thirty minutes after administration of the drug, each animal is injected intradermally with 0.05 ml of 1.44% anti-B.S.A. into the dorsal skin. […] Two perpendicular diameters of each lesion are measured. […]

carrageenin pleurisy = test: modification of the carrageenin pleurisy assay; format: in vivo
Excerpt: Also tested for comparison was phenylbutazone, a compound known to have anti-inflammatory activity.

NC1=NN(c2cccc(C(F)(F)F)c2)CC1 [1-(m-trifluoromethylphenyl)-3-amino-2-pyrazoline, reference compound]
Fatality Ratio (rats; 285 mg/kg): 8/10

NC1=NN(Cc2ccccc2)CC1 [1-benzyl-3-amino-2-pyrazoline]
% Inhibition Of Lesion [1]: 57%
% Inhibition Cells (carrageenin pleurisy; 120 mg/kg): 55%
% Inhibition Volume Exudate (carrageenin pleurisy; 120 mg/kg): 76%
Fatality Ratio (rats; 512 mg/kg): 0/10
toxicity relative to 1-aryl derivatives, in words (rats; compared with 1-aryl derivatives of 3-amino-2-pyrazoline): markedly less toxic

O=C1CCN(Cc2ccccc2)N1 [1-benzyl-3-pyrazolidinone, reference compound]
% Inhibition Of Lesion [1]: 28%

CCCCC1C(=O)N(c2ccccc2)N(c2ccccc2)C1=O [phenylbutazone, reference compound]
% Inhibition Cells (carrageenin pleurisy; 100 mg/kg): 13%
% Inhibition Volume Exudate (carrageenin pleurisy; 100 mg/kg): 59%
